According to US4544512A, “Tridecyloxy- or tetradecyloxy-propane derivatives” (Takeda Chemical Industries, Ltd., priority 1980, dated 1985):
Values after ≈ are worked out from the molar mass of the structure shown.

Columns and labels:
[1] = tested on: Tetrahymena pyriformis W; test: Antiprotozoal activity, broth dilution method (MIC); assay type: cell-based; conditions: 28° C., 44-48 hours, read-out: MIC against Tetrahymena pyriformis W
Protocol: Referring to the antiprotozoal activity given in Table 4, the microbial growth inhibiting activity (MIC) of each compound of this invention was assayed by the broth dilution method by incubating Tetrahymena pyriformis W strain as the test organism at 28° C. for 44-48 hours, using a test culture medium comprising 20 g of Tryptose peptine (Difco), 1 g of yeast extract, 2 g of glucose. 1,000 ml of distilled water and 10 ml of 1M phosphate buffer (pH 7.0).

[2] = tested on: Cryptococcus unigtullatas; test: Antimycotic activity, paper disk inhibition zone; assay type: cell-based; conditions: 48 h, concentration of 3 mg/ml, paper disk 8 mm, 37° C., 2 days, read-out: Inhibition zone diameters
Protocol: Referring to the antimycotic activity presented in Table 5, Cryptococcus unigtullatas and others were used as the test microbes, a paper disk (8 mm in diameter) was immersed in an aqueous solution of each test compound having a concentration of 3 mg/ml, air dried and placed on an agar medium, then incubation was conducted at 37° C. for 2 days, and the diameter (mm) of the inhibition zone was measured.

Row | SMILES | MIC [1] [µg/mL] | zone of inhibition at 3000 µg/mL [2] [mm]
1 | CCCCCCCCCCCCCCOCC(COP(=O)(O)OCCN)OC (stereo not drawn) [drawing 24 R = C14 H29] | 2 (≈ 4.7 µM) | –
2 | CCCCCCCCCCCCCCCCCCOCC(COP(=O)(O)OCCN)OC (stereo not drawn) [drawing 24 R = C18 H37] | 4 (≈ 8.3 µM) | –
3 | CCCCCCCCCCCCOCCCOP(=O)([O-])OCC[N+](C)(C)C [drawing 25 R = C12 H25] | 1 (≈ 2.44 µM) | –
4 | CCCCCCCCCCCCCOCCCOP(=O)([O-])OCC[N+](C)(C)C [drawing 25 R = C13 H27] | 0.2 (≈ 0.472 µM) | –
5 | CCCCCCCCCCCCCCOCCCOP(=O)([O-])OCC[N+](C)(C)C [drawing 25 R = C14 H29] | 0.2 (≈ 0.457 µM) | –
6 | CCCCCCCCCCCCCCCCCCOCCCOP(=O)([O-])OCC[N+](C)(C)C [drawing 25 R = C18 H37] | 2 to 4 (≈ 4.05 to 8.1 µM) | –
7 | CCCCCCCCCCCCOCCCOP(=O)(O)OCCN [drawing 26 R = C12 H25] | 2 (≈ 5.44 µM) | –
8 | CCCCCCCCCCCCCOCCCOP(=O)(O)OCCN [drawing 26 R = C13 H27] | 0.4 (≈ 1.05 µM) | –
9 | CCCCCCCCCCCCCCOCCCOP(=O)(O)OCCN [drawing 26 R = C14 H29] | 0.4 (≈ 1.01 µM) | –
10 | CCCCCCCCCCCCCCCCCCOCCCOP(=O)(O)OCCN [drawing 26 R = C18 H37] | 4 (≈ 8.86 µM) | –
11 | CCCCCCCCCCCCOCC(COP(=O)([O-])OCC[N+](C)(C)C)OC (stereo not drawn) [drawing 27 R = C12 H25] | – | 15
12 | CCCCCCCCCCCCCOCC(COP(=O)([O-])OCC[N+](C)(C)C)OC (stereo not drawn) [drawing 27 R = C13 H27] | – | 19
13 | CCCCCCCCCCCCCCOCC(COP(=O)([O-])OCC[N+](C)(C)C)OC (stereo not drawn) [drawing 27 R = C14 H29] | – | 22
14 | CCCCCCCCCCCCCCCCCCOCC(COP(=O)([O-])OCC[N+](C)(C)C)OC (stereo not drawn) [drawing 27 R = C18 H37] | – | 18
15 | CCCCCCCCCCCCOCC(COP(=O)(O)OCCN)OC (stereo not drawn) [drawing 28 R = C12 H25] | – | < 5
16 | CCCCCCCCCCCCCCOCC(COP(=O)(O)OCCN)OC (stereo not drawn) [drawing 28 R = C14 H29] | – | 13.5
17 | CCCCCCCCCCCCCCCCCCOCC(COP(=O)(O)OCCN)OC (stereo not drawn) [drawing 28 R = C18 H37] | – | < 5
18 | CCCCCCCCCCCCOCCCOP(=O)([O-])OCC[N+](C)(C)C [drawing 29 R = C12 H25] | – | 19
19 | CCCCCCCCCCCCCOCCCOP(=O)([O-])OCC[N+](C)(C)C [drawing 29 R = C13 H27] | – | 20
20 | CCCCCCCCCCCCCCOCCCOP(=O)([O-])OCC[N+](C)(C)C [drawing 29 R = C14 H29] | – | 21
21 | CCCCCCCCCCCCCCCCCCOCCCOP(=O)([O-])OCC[N+](C)(C)C [drawing 29 R = C18 H37] | – | 17
